# From patent US12552824B2, “C-mannoside compounds useful for the treatment of urinary tract infections” (GLAXOSMITHKLINE INTELLECTUAL PROPERTY DEVELOPMENT LIMITED, priority 2018, dated 2026)
# Molecular target: T1, FimH (Escherichia coli, UniProt Q1R2J4)
# T1 construct: endogenous in cells; host or cells: E. coli UTI89 whole bacteria, agglutinating guinea pig red blood cells
# Format: cell-based
# Details: concentration reducing bacterial agglutination of guinea pig red blood cells by greater than 90%; UTI89 bacteria
# Procedure: Hemagglutination Inhibition Assay (HAI)
# The hemagglutination inhibition (HAI) assay was performed with UTI89 bacteria and guinea pig red blood cells, as previously described (S. J. Hultgren, W. R. Schwan, A. J. Schaeffer, J. L. Duncan Infect. Immun. 1986, 54, 613-620 and Jarvis, C.; Han, Z.; Kalas, V.; Klein, R.; Pinkner, J. S.; Ford, B.; Binkley, J.; Cusumano, C. K.; Cusumano, Z.; Mydock-McGrane, L.; Hultgren, S. J.; Janetka, J. W., ChemMedChem 2016, 11, 367-373).
# 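Further: concentration in nM.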
row,SMILES,HAI titer EC > 90
1,Cc1cc(Cl)c(-c2ccc([C@@H](O)[C@H]3O[C@H](CO)[C@@H](O)[C@H](O)[C@@H]3O)c(C)c2)cc1F [Example 50],“+++” (50-200 “+++”)
2,Cc1cc(-c2cc(F)cc(OC3CC3)c2)ccc1[C@@H](O)[C@H]1O[C@H](CO)[C@@H](O)[C@H](O)[C@@H]1O [Example 51],“++++” (<50 “++++”)
3,OC[C@H]1O[C@H]([C@H](O)c2c(F)cc(-c3cc(F)cc(F)c3)cc2Cl)[C@@H](O)[C@@H](O)[C@@H]1O [Example 52],“+++” (50-200 “+++”)
4,Cc1cc(-c2cc(F)c(C3CC3)c(F)c2)ccc1[C@@H](O)[C@H]1O[C@H](CO)[C@@H](O)[C@H](O)[C@@H]1O [Example 53],“++++” (<50 “++++”)
5,Cc1cc(-c2cc(C3CC3)ccc2F)ccc1[C@@H](O)[C@H]1O[C@H](CO)[C@@H](O)[C@H](O)[C@@H]1O [Example 54],“+++” (50-200 “+++”)
6,Cc1cc(-c2cc(Cl)ccc2OC(F)(F)F)ccc1[C@@H](O)[C@H]1O[C@H](CO)[C@@H](O)[C@H](O)[C@@H]1O [Example 55],“+++” (50-200 “+++”)
7,Cc1cc(-c2cc(Cl)c(C3CC3)cc2F)ccc1[C@@H](O)[C@H]1O[C@H](CO)[C@@H](O)[C@H](O)[C@@H]1O [Example 56],“+++” (50-200 “+++”)
8,Cc1ccc(-c2ccc([C@@H](O)[C@H]3O[C@H](CO)[C@@H](O)[C@H](O)[C@@H]3O)c(C)c2)cc1F [Example 57],“+++” (50-200 “+++”)
9,COc1cc(F)cc(-c2ccc([C@@H](O)[C@H]3O[C@H](CO)[C@@H](O)[C@H](O)[C@@H]3O)c(C(F)(F)F)c2)c1 [Example 58],“++++” (<50 “++++”)
10,OC[C@H]1O[C@H]([C@H](O)c2ccc(-c3cc(F)cc(C(F)(F)F)c3)cc2C(F)(F)F)[C@@H](O)[C@@H](O)[C@@H]1O [Example 59],“++++” (<50 “++++”)
11,Cc1cc(F)cc(-c2ccc([C@@H](O)[C@H]3O[C@H](CO)[C@@H](O)[C@H](O)[C@@H]3O)c(C)c2)c1 [Example 60],“+++” (50-200 “+++”)
12,Cc1cc(-c2cc(F)cc(C3CC3)c2)ccc1[C@@H](O)[C@H]1O[C@H](CO)[C@@H](O)[C@H](O)[C@@H]1O [Example 62],“+++” (50-200 “+++”)
13,COc1cc(-c2ccc([C@@H](O)[C@H]3O[C@H](CO)[C@@H](O)[C@H](O)[C@@H]3O)c(C)c2)cc(F)c1C [Example 63],“++++” (<50 “++++”)
14,COc1cc(C)cc(-c2ccc([C@@H](O)[C@H]3O[C@H](CO)[C@@H](O)[C@H](O)[C@@H]3O)c(C)c2)c1 [Example 65],“+++” (50-200 “+++”)
15,Cc1cc(-c2ccc(C(F)(F)F)c(C)c2)ccc1[C@@H](O)[C@H]1O[C@H](CO)[C@@H](O)[C@H](O)[C@@H]1O [Example 66],“++++” (<50 “++++”)
16,Cc1cc(-c2ccc(C(F)(F)F)c(C(F)(F)F)c2)ccc1[C@@H](O)[C@H]1O[C@H](CO)[C@@H](O)[C@H](O)[C@@H]1O [Example 67],“++++” (<50 “++++”)
17,Cc1cc(-c2ccc([C@@H](O)[C@H]3O[C@H](CO)[C@@H](O)[C@H](O)[C@@H]3O)c(C)c2)cc(C(F)(F)F)c1 [Example 68],“++++” (<50 “++++”)
18,COc1ccc(-c2ccc([C@@H](O)[C@H]3O[C@H](CO)[C@@H](O)[C@H](O)[C@@H]3O)c(C)c2)cc1C(F)(F)F [Example 69],“++++” (<50 “++++”)
19,Cc1cc(-c2cc(F)cc(F)c2F)ccc1[C@@H](O)[C@H]1O[C@H](CO)[C@@H](O)[C@H](O)[C@@H]1O [Example 70],“++++” (<50 “++++”)
20,COc1c(F)cc(-c2ccc([C@@H](O)[C@H]3O[C@H](CO)[C@@H](O)[C@H](O)[C@@H]3O)c(C)c2)cc1Cl [Example 71],“++++” (<50 “++++”)
21,Cc1cc(-c2cccc(C(F)(F)F)c2)ccc1[C@@H](O)[C@H]1O[C@H](CO)[C@@H](O)[C@H](O)[C@@H]1O [Example 75],“+++” (50-200 “+++”)
22,COc1cc(-c2ccc([C@@H](O)[C@H]3O[C@H](CO)[C@@H](O)[C@H](O)[C@@H]3O)c(C)c2)ccc1C(F)(F)F [Example 76],“++++” (<50 “++++”)
23,Cc1cc(-c2cccc(F)c2)ccc1[C@@H](O)[C@H]1O[C@H](CO)[C@@H](O)[C@H](O)[C@@H]1O [Example 77],“+++” (50-200 “+++”)

row,SMILES,HAI titer EC > 90
1,CCOc1ccc(-c2ccc([C@@H](O)[C@H]3O[C@H](CO)[C@@H](O)[C@H](O)[C@@H]3O)c(C)c2)cc1F [Example 81],“++++” (<50 “++++”)
2,COc1cc(F)c(-c2ccc([C@@H](O)[C@H]3O[C@H](CO)[C@@H](O)[C@H](O)[C@@H]3O)c(C)c2)cc1F [Example 82],“++++” (<50 “++++”)
3,Cc1cc(-c2ccc(CN(C)C)c(F)c2)ccc1[C@@H](O)[C@H]1O[C@H](CO)[C@@H](O)[C@H](O)[C@@H]1O [Example 83],“++++” (<50 “++++”)
4,Cc1cc(-c2cc(C)c(C)c(F)c2)ccc1[C@@H](O)[C@H]1O[C@H](CO)[C@@H](O)[C@H](O)[C@@H]1O [Example 84],“++++” (<50 “++++”)
5,Cc1cc(-c2cc(F)cc(C(F)F)c2)ccc1[C@@H](O)[C@H]1O[C@H](CO)[C@@H](O)[C@H](O)[C@@H]1O [Example 85],“++++” (<50 “++++”)
6,Cc1cc(-c2cc(C(F)F)cc(C(F)F)c2)ccc1[C@@H](O)[C@H]1O[C@H](CO)[C@@H](O)[C@H](O)[C@@H]1O [Example 86],“++++” (<50 “++++”)
7,COc1cc(-c2ccc([C@@H](O)[C@H]3O[C@H](CO)[C@@H](O)[C@H](O)[C@@H]3O)c(C)c2)cc(F)c1C(F)(F)F [Example 87],“++++” (<50 “++++”)
8,Cc1cc(-c2cc(C)c(F)c(F)c2)ccc1[C@@H](O)[C@H]1O[C@H](CO)[C@@H](O)[C@H](O)[C@@H]1O [Example 88],“++++” (<50 “++++”)
9,Cc1cc(-c2cc(F)c(C(C)C)c(F)c2)ccc1[C@@H](O)[C@H]1O[C@H](CO)[C@@H](O)[C@H](O)[C@@H]1O [Example 89],“++++” (<50 “++++”)
10,Cc1cc(-c2cc(OC(C)C)cc(C(F)(F)F)c2)ccc1[C@@H](O)[C@H]1O[C@H](CO)[C@@H](O)[C@H](O)[C@@H]1O [Example 90],“+++” (50-200 “+++”)
11,CCCc1c(F)cc(-c2ccc([C@@H](O)[C@H]3O[C@H](CO)[C@@H](O)[C@H](O)[C@@H]3O)c(C)c2)cc1F [Example 92],“++++” (<50 “++++”)
12,Cc1cc(-c2cc(F)c(OC(F)F)c(F)c2)ccc1[C@@H](O)[C@H]1O[C@H](CO)[C@@H](O)[C@H](O)[C@@H]1O [Example 96],“++++” (<50 “++++”)
13,OC[C@H]1O[C@H]([C@H](O)c2ccc(-c3cc(F)c(F)c(F)c3)cc2C(F)(F)F)[C@@H](O)[C@@H](O)[C@@H]1O [Example 97],“++++” (<50 “++++”)
14,Cc1cc(-c2ccc(F)cc2)ccc1[C@@H](O)[C@H]1O[C@H](CO)[C@@H](O)[C@H](O)[C@@H]1O [Example 98],“+++” (50-200 “+++”)
15,Cc1cc(-c2ccc(Cl)cc2)ccc1[C@@H](O)[C@H]1O[C@H](CO)[C@@H](O)[C@H](O)[C@@H]1O [Example 99],“+++” (50-200 “+++”)
16,Cc1cc(-c2ccc(C3CC3)cc2)ccc1[C@@H](O)[C@H]1O[C@H](CO)[C@@H](O)[C@H](O)[C@@H]1O [Example 100],“+++” (50-200 “+++”)
17,COCc1c(F)cc(-c2ccc([C@@H](O)[C@H]3O[C@H](CO)[C@@H](O)[C@H](O)[C@@H]3O)c(C)c2)cc1F [Example 102],“++++” (<50 “++++”)
18,C#Cc1c(F)cc(-c2ccc([C@@H](O)[C@H]3O[C@H](CO)[C@@H](O)[C@H](O)[C@@H]3O)c(C)c2)cc1F [Example 103],“++++” (<50 “++++”)
19,Cc1cc(-c2cc(F)c(N(C)C)c(F)c2)ccc1[C@@H](O)[C@H]1O[C@H](CO)[C@@H](O)[C@H](O)[C@@H]1O [Example 104],“++++” (<50 “++++”)
20,Cc1cc(-c2ccc(C(F)(F)F)cc2)ccc1[C@@H](O)[C@H]1O[C@H](CO)[C@@H](O)[C@H](O)[C@@H]1O [Example 105],“+++” (50-200 “+++”)
21,COc1cc(-c2ccc([C@@H](O)[C@H]3O[C@H](CO)[C@@H](O)[C@H](O)[C@@H]3O)c(C)c2)cc(C(F)(F)F)c1F [Example 106],“++++” (<50 “++++”)
22,Cc1cc(-c2cc(F)cc(N(C)C)c2)ccc1[C@@H](O)[C@H]1O[C@H](CO)[C@@H](O)[C@H](O)[C@@H]1O [Example 109],“++++” (<50 “++++”)
23,Cc1cc(-c2cc(F)c(F)c(C(F)(F)F)c2)ccc1[C@@H](O)[C@H]1O[C@H](CO)[C@@H](O)[C@H](O)[C@@H]1O [Example 110],“++++” (<50 “++++”)
